The results in this text go back to patent US20200069677A1, “MARKERS FOR PERSONALIZED CANCER TREATMENT WITH LSD1 INHIBITORS” (Constellation Pharmaceuticals, Inc., priority 2016, published 2020).

In experiment [1] the test system is SET2 xenografts. Briefly: In vivo efficacy on SET2 tumor xenografts. Conditions: Nude mice; 1.5, 5 and 15 mg/kg p.o. QD; 14 days of dosing. On the procedure:
FIG. 12 illustrates the in vivo efficacy of GSK2879552 on SET2 xenografts. […] Tumor-bearing animals were treated with 3 different dose levels of the KDM1A inhibitor: 1.5 mg/kg, 5 mg/kg, and 15 mg/kg administered orally (p.o.) on a daily schedule (QD). […] Top right panel indicates body weight changes determined in the treated mice.

Experiment [2] addresses T1, KDM1A/CoREST complex (Homo sapiens, UniProt O60341). Briefly: Anti-KDM1A immunoprecipitation and Western blot in HEL cells. The class given is cell-based. The arrangement: endogenous in cells. The settings on record: overnight at 1 μM. On the procedure: For immunoprecipitation, 3 μg of anti-KDM1A antibody (Bethyl Labs, Montgomery, Tex.) or rabbit IgG (Cell Signaling, Danvers, Mass.) were added to 0.5 mg of reconstituted whole cell lysate and placed on a rotator at 4° C. overnight. To isolate the immune complexes, 50 μL of pre-washed Protein G magnetic beads (Dynabeads, Invitrogen) equilibrated in A+C buffer (1:1) were added and the samples were rotated for 4° C. for an additional 2 hours. Beads were captured using a magnetic stand (DynaMag, Invitrogen) and washed 3 times with buffer A+C. The beads were re-suspended in 25 μl 2×SDS loading buffer and resolved on 4-12% SDS-PAGE gels. Co-precipitated proteins were detected by western blotting using the indicated primary antibodies. […] Here, HEL cells were treated with the KDM1A inhibitor RN-1 overnight at 1 μM concentration. Cell lysates were prepared and an immunoprecipitation was carried out using an anti-KDM1A antibody and rabbit IgG as a control. SDS-PAGE and Western blotting was performed on the input material and immunoprecipitated material. Blot was probed with an anti-GFI1B, anti-KDM1A, and anti-vinculin antibodies. Bound antibodies were detected with goat anti-rabbit IgG antibody and goat anti-mouse IgG, conjugated with DyLight 800 AND DyLight 680, respectively.

For experiment [3], the target named is T1, KDM1A/CoREST complex. Nature of the experiment: Anti-KDM1A immunoprecipitation and Western blot in SET2 cells. The class given is cell-based. Also on record: endogenous in cells; host or cells: SET2 cells. Here is the method:
[…] Cells were harvested, washed twice with cold PBS and resuspended in 5 volumes of Buffer A (10 mM Tris-HCL (pH 8.0), 1.5 mM MgCl2, 10 mM KCl, 0.5 mM DTT, supplemented with protease inhibitors). After 15 minutes on ice, cells were spun down at 1000×g for 15 minutes and the supernatant was removed as the cytosolic fraction. Pellets were resuspended in Buffer C (20 mM Tris-HCl, (pH 7.9), 25% glycerol, 0.42 M NaCl, 1.5 mM MgCl2, 0.2 mM EDTA, 0.5 mM DTT and protease inhibitors) and sonicated briefly (3 seconds, 40% output). After incubating on ice for 30 minutes, cells were spun at 20,000×g for 20 minutes to pellet the insoluble material. The supernatant was removed (soluble nuclear fraction) and combined with the cytosolic fraction to reconstitute a whole cell lysate with a final NaCl concentration of <200 mM. […] Co-precipitated proteins were detected by western blotting using the indicated primary antibodies. […] Bound antibodies were detected with goat anti-rabbit IgG antibody and goat anti-mouse IgG, conjugated with DyLight 800 AND DyLight 680, respectively. […]

For the compound `O=C(O)c1ccc(CN2CCC(CN[C@@H]3C[C@H]3c3ccccc3)CC2)cc1` [GSK2879552], the “Growth of SET-2 tumor xenografts (tumor size)” value in experiment [1] was “reduced the growth of SET-2 tumor xenografts”.

As to `CN1CCN(C(=O)CN[C@@H]2CC2c2ccc(OCc3ccccc3)cc2)CC1` (stereo partly shown) [RN-1], the “GFI1B association with the KDM1A/CoREST complex (co-immunoprecipitation)” value is given as “displacement of GFI1B from the KDM1A/CoREST complex” in experiment [2] and “displacement of GFI1B from the KDM1A/CoREST complex” in experiment [3] (SET2 cells, 1 μM RN-1 for 24 hours, vs DMSO). Also, the “CoREST retention in the KDM1A complex (co-immunoprecipitation)” value in experiment [3] (SET-2 cells, overnight at 1 μM) is “CoREST is retained in the KDM1A complex”.
